Results as given in patent publication US20170114029A1, “TREATMENT OF CHAGAS DISEASE” (UNIVERSITY OF DUNDEE, priority 2014, published 2017).
≈ marks a conversion by molar mass, not a printed value.

System: T. cruzi Tulahuen strain C2C4
Assay: Activity against T. cruzi (beta-galactosidase expressing parasites in L-6 cells)
Assay type: cell-based, Trypanosoma cruzi
Details: Trypanosoma cruzi, TULAHUEN, L6, in Rattus norvegicus, 96 h, trypomastigotes in rat skeletal myoblasts (L-6 cells), 96 h incubation, CPRG/Nonidet read at 540 nm; read-out: Activity (IC50)
Description: Activity against T. cruzi. Rat skeletal myoblasts (L-6 cells) were seeded in 96-well microtitre plates at 2000 cells/well in 100 μL RPMI 1640 medium with 10% FBS and 2 mM 1-glutamine. After 24 h the medium was removed and replaced by 100 μl per well containing 5000 trypomastigote forms of T. cruzi Tulahuen strain C2C4 containing the […] (Lac Z) gene (Buckner et al. 1996). After 48 h the medium was removed from the wells and replaced by 100 μl fresh medium with or without a serial drug dilution of eleven 3-fold dilution steps covering a range from 100 to 0.002 μg/ml. After 96 h of incubation the plates were inspected under an inverted microscope to assure growth of the controls and sterility. Then the substrate CPRG/Nonidet (50 μl) was added to all wells. A color reaction developed within 2-6 h and could be read photometrically at 540 nm. Data were analyzed with the graphic programme Softmax Pro (Molecular Devices), which calculated IC50 values by linear regression (Huber 1993) from the sigmoidal dose inhibition curves. Benznidazole is used as control (IC50 0.5±0.2 ug/ml). • Buckner, F. S., C. L. Verlinde, A. C. La Flamme, and W. C. Van Voorhis. 1996. Efficient technique for screening drugs for activity against Trypanosoma cruzi using parasites expressing beta-galactosidase, p. 2592-2597, vol. 40. • Huber, W. Koella, J. C. 1993. A comparison of the three methods of estimating EC50 in studies of drug resistance of malaria parasites. Acta Trop. 55, 257-261.

SMILES | IC50
CC(=O)Nc1ccc2[nH]c(=O)n(C3CCC(C)(C)CC3)c(=O)c2c1 [Example 52, N-(3-(4,4-dimethylcyclohexyl)-2,4-dioxo-1,2,3,4-tetrahydroquinazolin-6-yl)acetamide] | 0.058 µg/mL (≈ 0.176 µM)
O=c1[nH]c2ccc(-c3cccnc3)cc2c(=O)n1CCC1CCCCC1 [Example 17, 3-(2-Cyclohexylethyl)-6-(pyridin-3-yl)quinazoline-2,4(1H,3H)-dione] | 0.655 µg/mL (≈ 1.87 µM)
CC(=O)Nc1ccc2[nH]c(=O)n(C3CCC(C)CC3)c(=O)c2c1 (stereo not drawn) [Example 59, N-(3-(4-methylcyclohexyl)-2,4-dioxo-1,2,3,4-tetrahydroquinazolin-6-yl)acetamide] | 0.329 µg/mL (≈ 1.04 µM)
CC(=O)Nc1cnc2[nH]c(=O)n([C@H]3CC[C@H](C(C)(C)C)CC3)c(=O)c2c1 [Example 33, N-[3-(trans-4-tert-Butyl-cyclohexyl)-2,4-dioxo-1,2,3,4-tetrahydro-pyrido[2,3-d]pyrimidin-6-yl]-acetamide] | 0.196 µg/mL (≈ 0.547 µM)
CC(=O)Nc1ccc2[nH]c(=O)n([C@H](C)C3CCCCC3)c(=O)c2c1 [Example 2, (R)—N-(3-(1-cyclohexylethyl)-2,4-dioxo-1,2,3,4-tetrahydroquinazolin-6-yl)acetamide] | 0.724 µg/mL (≈ 2.2 µM)
CC(=O)Nc1ccc2[nH]c(=O)n([C@H]3CC[C@@H](C(C)C)CC3)c(=O)c2c1 [Example 47, N-(3-((1s,4s)-4-Isopropylcyclohexyl)-2,4-dioxo-1,2,3,4-tetrahydroquinazolin-6-yl)acetamide] | 0.087 µg/mL (≈ 0.253 µM)
CC(=O)Nc1ccc2[nH]c(=O)n(CCCc3ccc(F)cc3)c(=O)c2c1 [Example 44, N-(3-(3-(4-fluorophenyl)propyl)-2,4-dioxo-1,2,3,4-tetrahydroquinazolin-6-yl)acetamide] | 0.943 µg/mL (≈ 2.65 µM)
CC(=O)Nc1ccc2[nH]c(=O)n([C@H]3CCO[C@@H](C(C)(C)C)C3)c(=O)c2c1 [Example 61, N-(3-((2R,4S)-2-(Tert-butyl)tetrahydro-2H-pyran-4-yl)-2,4-dioxo-1,2,3,4-tetrahydroquinazolin-6-yl)acetamide] | 0.744 µg/mL (≈ 2.07 µM)
CC(=O)Nc1ccc2[nH]c(=O)n(C3CCC(C(C)(C)C)C3)c(=O)c2c1 (stereo not drawn) [Example 60, N-(3-(3-(Tert-butyl)cyclopentyl)-2,4-dioxo-1,2,3,4-tetrahydroquinazolin-6-yl)acetamide] | 0.007 µg/mL (≈ 0.0204 µM)
CCC1CCC(n2c(=O)[nH]c3ncc(NC(C)=O)cc3c2=O)CC1 (stereo not drawn) [Example 35, N-[3-(trans-4-ethyl-cyclohexyl)-2,4-dioxo-1,2,3,4-tetrahydro-pyrido[2,3-d]pyhmidin-6-yl]-acetamide] | 0.1 µg/mL (≈ 0.303 µM)
CC(C)(C)[C@H]1CC[C@H](n2c(=O)[nH]c3ncc(N)cc3c2=O)CC1 [Example 26e, 6-Amino-3-(trans-4-tert-butyl-cyclohexyl)-1H-pyrido[2,3-d]pyrimidine-2,4-dione] | 0.209 µg/mL (≈ 0.661 µM)
CC[C@H]1CC[C@@H](n2c(=O)[nH]c3ccc(NC(C)=O)cc3c2=O)CC1 [Example 55, N-(3-((1s,4s)-4-Ethylcyclohexyl)-2,4-dioxo-1,2,3,4-tetrahydroquinazolin-6-yl)acetamide] | 0.3 µg/mL (≈ 0.911 µM)
Cc1noc(C)c1-c1ccc2[nH]c(=O)n(CCC3CCCCC3)c(=O)c2c1 [Example 16c, 3-(2-Cyclohexylethyl)-6-(3,5-dimethylisoxazol-4-yl)quinazoline-2,4(1H,3H)-dione] | 11.5 µg/mL (≈ 31.3 µM)
CC(=O)Nc1ccc2[nH]c(=O)n(CCCN3CCOCC3)c(=O)c2c1 [Example 40, N-(3-(3-Morpholinopropyl)-2,4-dioxo-1,2,3,4-tetrahydroquinazolin-6-yl)acetamide] | 55.3 µg/mL (≈ 160 µM)
CCC[C@H]1CC[C@H](n2c(=O)[nH]c3ccc(NC(C)=O)cc3c2=O)CC1 [Example 58, N-(2,4-Dioxo-3-((1s,4r)-4-propylcydohexyl)-1,2,3,4-tetrahydroquinazolin-6-yl)acetamide] | 0.007 µg/mL (≈ 0.0204 µM)
CC(C)(C)C1CCC(n2c(=O)[nH]c3ccc(N)cc3c2=O)CC1 (racemic) [23b (rac), 6-amino-3-(4-tert-butyl-cyclohexyl)-1H-quinazoline-2,4-dione] | 0.028 µg/mL (≈ 0.0888 µM)
Nc1ccc2[nH]c(=O)n(CCC3CCCCC3)c(=O)c2c1 [Example 9, 6-Amino-3-(2-cyclohexylethyl)quinazoline-2,4(1H,3H)-dione] | 0.339 µg/mL (≈ 1.18 µM)
CC(C)(C)[C@H]1CC[C@H](n2c(=O)[nH]c3ccc(N)cc3c2=O)CC1 [23b (trans), 6-amino-3-(trans-4-tert-butyl-cyclohexyl)-1H-quinazoline-2,4-dione] | 0.03 µg/mL (≈ 0.0951 µM)
CC(=O)Nc1ccc2[nH]c(=O)n([C@H]3CC[C@@H](C(C)(C)C)CC3)c(=O)c2c1 [Example 50, N-(3-((1s,4s)-4-(Tert-butyl)cyclohexyl)-2,4-dioxo-1,2,3,4-tetrahydroquinazolin-6-yl)acetamide] | 0.005 µg/mL (≈ 0.014 µM)
CC(=O)Nc1cnc2[nH]c(=O)n(CCC3CCCCC3)c(=O)c2c1 [Example 39, N-(3-(2-cyclohexylethyl)-2,4-dioxo-1,2,3,4-tetrahydropyrido[2,3-d]pyrimidin-6-yl)acetamide] | 0.755 µg/mL (≈ 2.29 µM)
CCC1CCC(n2c(=O)[nH]c3ccc(N)cc3c2=O)CC1 (racemic) [24 (rac), 6-Amino-3-(4-ethyl-cyclohexyl)-1H-quinazoline-2,4-dione] | 0.022 µg/mL (≈ 0.0766 µM)
O=c1[nH]c2ccc(-c3ccncc3)cc2c(=O)n1CCC1CCCCC1 [Example 19, 3-(2-Cyclohexylethyl)-6-(pyridin-4-yl)quinazoline-2,4(1H,3H)-dione] | 0.605 µg/mL (≈ 1.73 µM)
CC(C)(C)[C@H]1CC[C@@H](n2c(=O)[nH]c3ccc(N)cc3c2=O)CC1 [23b (cis), 6-amino-3-(cis-4-tert-butyl-cyclohexyl)-1H-quinazoline-2,4-dione] | 0.007 µg/mL (≈ 0.0222 µM)
CCCCCCn1c(=O)[nH]c2ccc(NC(C)=O)cc2c1=O [Example 41, N-(3-hexyl-2,4-dioxo-1,2,3,4-tetrahydroquinazolin-6-yl)acetamide] | 0.881 µg/mL (≈ 2.9 µM)
CC(=O)Nc1ccc2[nH]c(=O)n(C3CCCCCC3)c(=O)c2c1 [Example 46, N-(3-Cycloheptyl-2,4-dioxo-1,2,3,4-tetrahydro-quinazolin-6-yl)acetamide] | 0.661 µg/mL (≈ 2.1 µM)
CC[C@H]1CC[C@@H](n2c(=O)[nH]c3ccc(N)cc3c2=O)CC1 [24 (cis), 6-Amino-3-(cis-4-ethyl-cyclohexyl)-1H-quinazoline-2,4-dione] | 0.096 µg/mL (≈ 0.334 µM)
CC(=O)Nc1ccc2[nH]c(=O)n([C@H]3CC[C@H](C(F)(F)F)CC3)c(=O)c2c1 [Example 53, N-(2,4-dioxo-3-((1r,4r)-4-(trifluoromethyl)cyclohexyl)-1,2,3,4-tetrahydroquinazolin-6-yl)acetamide] | 0.13 µg/mL (≈ 0.352 µM)
CCOC(=O)Nc1ccc2c(c1)c(=O)n(CCC1CCCCC1)c(=O)n2CC [Example 13c, Ethyl (3-(2-cyclohexylethyl)-1-ethyl-2,4-dioxo-1,2,3,4-tetrahydroquinazolin-6-yl)carbamate] | 5.23 µg/mL (≈ 13.5 µM)

Same assay, conditions: trypomastigotes in rat skeletal myoblasts (L-6 cells), 96 h incubation, CPRG/Nonidet read at 540 nm

SMILES | Activity (IC50)
CCC1CCC(n2c(=O)[nH]c3ncc(NC(C)=O)cc3c2=O)CC1 (stereo not drawn) [Example 36, N-(3-((1s,4s)-4-ethylcyclohexyl)-2,4-dioxo-1,2,3,4-tetrahydropyrido[2,3-d]pyrimidin-6-yl)acetamide] | 0.110 µg/mL
CC(C)[C@H]1CC[C@H](n2c(=O)[nH]c3ccc(N)cc3c2=O)CC1 [25 (trans), 6-Amino-3-((1 r,4r)-4-isopropylcyclohexyl)quinazoline-2,4(1H,3H)-dione] | 0.008 µg/mL
